Reference: the supplement of paper PMC10307832

Assays:
Assay in all cases: relative viability (nuclei count vs DMSO), 5 days (fraction); higher = more cells survive
[1] = compound: CN1CCC(CNc2ccc3ncc(-c4cccc(OC(F)(F)F)c4)n3n2)CC1 [SGI-1776] + CC1(C)CCC(c2ccc(Cl)cc2)=C(CN2CCN(c3ccc(C(=O)NS(=O)(=O)c4ccc(N[C@H](CCN5CCOCC5)CSc5ccccc5)c(S(=O)(=O)C(F)(F)F)c4)cc3)CC2)C1 [Navitoclax] (partner 0.5 µM)
Procedure, shortened: (§1)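 A single step with final 0.05% Triton X-100, 1% formaldehyde and 1 ug/ml Hoechst fixed the cells and stained nuclei 5 days after treatment. Lung cancer cell lines in 1536-well plates had been treated by pin tool the day after seeding with one drug alone or a fixed anchor-drug dose plus five library-drug doses (not always all listed) in √10 steps, and nuclei were counted on 4× images. Relative viability is the ratio of nuclei in treated wells to nuclei in vehicle wells, taken as the median of duplicate plates.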

[2] = compound: C1COCCN1C2=NC(=NC3=C2OC4=C3C=CC=N4)C5=CC(=CC=C5)NC(=O)C6=CN=C(C=C6)N + CCNC(=O)c1noc(-c2cc(C(C)C)c(O)cc2O)c1-c1ccc(CN2CCOCC2)cc1 [Luminespib] (partner 0.01 µM)
Procedure, shortened: as §1

[3] = compound: Nc1ccccc1NC(=O)c1ccc(CNC(=O)OCc2cccnc2)cc1 [Entinostat] + COc1cccc2cc(-c3nc([C@H]4CC[C@H](C(=O)O)CC4)n4ncnc(N)c34)[nH]c12 [OSI-027] (partner 0.5 µM)
Procedure, shortened: as §1

[4] = compound: C1COCCN1C2=NC(=NC3=C2OC4=C3C=CC=N4)C5=CC(=CC=C5)NC(=O)C6=CN=C(C=C6)N + CS(=O)(=O)CCNCc1ccc(-c2ccc3ncnc(Nc4ccc(OCc5cccc(F)c5)c(Cl)c4)c3c2)o1 [Lapatinib] (partner 2 µM)
Procedure, shortened: as §1

| Cell Line | relative viability ([1]; first compound 0.08 µM) | relative viability ([1]; first compound 0.8 µM) | relative viability ([1]; first compound 2.53 µM) | relative viability ([1]; first compound 8 µM) | relative viability ([2]; first compound 0.02 µM) | relative viability ([2]; first compound 0.06325 µM) | relative viability ([2]; first compound 0.2 µM) | relative viability ([2]; first compound 0.6325 µM) | relative viability ([2]; first compound 2 µM) | relative viability ([3]; first compound 0.02 µM) | relative viability ([3]; first compound 0.06325 µM) | relative viability ([3]; first compound 0.2 µM) | relative viability ([3]; first compound 0.6325 µM) | relative viability ([3]; first compound 2 µM) | relative viability ([4]; first compound 0.02 µM) | relative viability ([4]; first compound 0.06325 µM) | relative viability ([4]; first compound 0.2 µM) | relative viability ([4]; first compound 0.6325 µM) | relative viability ([4]; first compound 2 µM) |
| --- | --- | --- | --- | --- | --- | --- | --- | --- | --- | --- | --- | --- | --- | --- | --- | --- | --- | --- | --- |
| NCI-H3122 | 1.01 | 1.03 | 1.03 | 1.04 | 0.0667 | 0.0713 | 0.0835 | 0.0904 | 0.077 | 1.01 | 1.08 | 0.998 | 0.823 | 0.191 | 0.958 | 1.08 | 1.04 | 1.07 | 0.88 |
| NCI-H2126 | 0.809 | 0.877 | 0.846 | 0.743 | 0.892 | 0.894 | 0.871 | 0.845 | 0.566 | 0.725 | 0.699 | 0.712 | 0.402 | 0.308 | 0.729 | 0.754 | 0.722 | 0.776 | 0.67 |
| NCI-H520 | 1.14 | 1.25 | 1.13 | 1.08 | 0.224 | 0.21 | 0.244 | 0.233 | 0.201 | 0.335 | 0.277 | 0.274 | 0.385 | 0.407 | 0.874 | 1.03 | 0.897 | 0.852 | 0.441 |
| LU99A | 0.903 | 0.782 | 0.898 | 0.81 | 0.265 | 0.221 | 0.235 | 0.207 | 0.266 | 0.308 | 0.314 | 0.353 | 0.27 | 0.296 | 1.1 | 1.04 | 0.92 | 0.64 | 0.35 |
| NCI-H1666 | 0.907 | 0.772 | 0.836 | 0.705 | 0.88 | 0.996 | 0.957 | 0.727 | 0.63 | 0.906 | 0.897 | 0.859 | 0.618 | 0.606 | 0.708 | 0.598 | 0.56 | 0.648 | 0.434 |
| NCI-H460 | 1.12 | 1.13 | 1.07 | 1.19 | 0.0333 | 0.035 | 0.0284 | 0.0243 | 0.0278 | 0.606 | 0.575 | 0.335 | 0.0521 | 0.0268 | 0.907 | 1.12 | 1.11 | 0.578 | 0.0915 |
